Laboratory results from paper PMC9525908, “α-Crystallin chaperone mimetic drugs inhibit lens γ-crystallin aggregation: Potential role for cataract prevention” (The Journal of Biological Chemistry, 2022).

How the values were obtained:
HγD = target: T1, HγD (Homo sapiens, UniProt P07320); conditions: 600 μM drug C, tested by an outside laboratory; cited from earlier work
T1 construct: made in house; host or cells: E. coli BL21(DE3) pLysS, pET3d vector
T1 sequence (P07320 1-174): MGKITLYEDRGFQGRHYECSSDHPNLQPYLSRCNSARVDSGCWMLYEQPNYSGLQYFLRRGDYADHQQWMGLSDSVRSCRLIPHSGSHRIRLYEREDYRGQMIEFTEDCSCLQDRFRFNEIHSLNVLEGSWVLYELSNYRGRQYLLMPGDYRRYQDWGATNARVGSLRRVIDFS

WT-HγD crystallin = target: T2, WT-HγD crystallin (Homo sapiens, UniProt P07320); assay: Thermal unfolding of WT-HγD by fluorescence ratio (Tm); assay type: biochemical; conditions: for Tm: 10 μM WT-HγD, 100 μM drug, fluorescence ratio 360/330 nm, control 81 °C; for Tm of HγD-nat: 100 μM agent, 360/320 nm ratio, 78 ± 0.1 °C without agent; for Elevation of Tm of HγD: versus control 81 °C
T2 construct: made in house; host or cells: E. coli BL21(DE3) pLysS, pET3d vector
T2 sequence (P07320 1-174): T1 sequence (P07320 1-174)
Description: His-tag free recombinant HγD crystallin produced in Escherichia coli using pET3d or pET17b expression vector was used to investigate the effects of compounds C and G against thermal-induced unfolding and aggregate formation. The antiaggregation potency of drug C and G was reconfirmed by dynamic light scattering (DLS) (Fig. 2A). […] There is a decrease in the size of aggregates from as high as 7261 nm without drugs to 30.5 nm with drug C and 84.9 nm with drug G. Drug M has moderate activity with mean aggregate size of 569 nm radius (Table S2). […] Furthermore, we investigated whether these drugs can prevent thermal unfolding of HγD (Fig. 2C). […] It is the temperature at which 50% of the protein unfolds.
(§1) Thermal denaturation study was monitored using fluorescence spectroscopy. Protein solutions (10 μM) in the presence and absence of drugs or bis-ANS (100 μM) were heated continuously from 30 to 95 °C, and the fluorescence data were collected every 5 °C after 1 min equilibration at the given temperature. Unfolding data were fit to Greene and Pace’s two-state model ([82]) using GraphPad Prism software (GraphPad Software, Inc).

15N-labeled HyD = target: T3, 15N-labeled HyD (Homo sapiens, UniProt P07320); assay: NMR HSQC of 15N-labeled HyD with drug C; assay type: binding; conditions: 100 μM protein, 600 μM drug C, 5% DMSO
T3 sequence (P07320 1-174): T1 sequence (P07320 1-174)

HγD-ox = target: T4, HγD-ox (Homo sapiens, UniProt P07320); assay: Thermal unfolding (Tm) of oxidized HγD; assay type: biochemical; conditions: 100 μM agent, 360/320 nm ratio; 68 ± 0.07 °C without agent
T4 construct: made in house; host or cells: Escherichia coli BL21(DE3) pLysS, pET3d vector
T4 sequence (P07320 1-174): T1 sequence (P07320 1-174)
Description: In postsubmission experiments, we attempted to find mechanistic clues relevant to the use of an H2O2 oxidation step prior to the thermal stress used during the initial drug screen. For this reason, we did a comparative study of oxidized (HγD-ox) versus native HγD (HyD-nat), hypothesizing that bis-ANS would both act like the drugs and provide information on the role of exposed hydrophobicity ([40]). HγD was oxidized in diethylenetriaminepentaacetic acid […] phosphate buffer to facilitate hydroxyl radical formation and protein damage, followed by dialysis against DTPA-treated buffer to eliminate the known proaggregating effects of divalent metals ([32]) in the subsequent steps. […] Overall protective effects were more pronounced for the oxidized than nonoxidized form of HγD. […] In the hope to obtain clues on the impact of bis-ANS, drugs C, G, and M on protein aggregation status, native PAGE was performed (Fig. 3G). Polymers greater than 250 kD are present in unheated HγD-nat but only the size of 75 to 100 kD in HγD-ox. […] Other techniques will be needed to assess the relationship between drugs and aggregate size.
as §1

Row | SMILES | Effect on heat-mediated aggregation of HγD (HγD) | Tm (WT-HγD crystallin) | Tm of HγD-nat (WT-HγD crystallin) | Elevation of Tm of HγD (WT-HγD crystallin) | HSQC spectra, drug-treated versus control sample (15N-labeled HyD) | Tm of HγD-ox (HγD-ox)
1 | Cc1cc(C(C#N)c2ccc(Cl)cc2)c(Cl)cc1NC(=O)c1cc(I)cc(I)c1O (stereo not shown) [drug C, Closantel] | worsening | 85 °C | increased all Tm values to the maximum value | 4 °C | no significant differences | increased all Tm values to the maximum value
2 | CC(C)=CCC[C@]1(C)C=Cc2c(O)c3c(c(CC=C(C)C)c2O1)O[C@]12C(=C[C@@H]4C[C@H]1C(C)(C)O[C@@]2(C/C=C(/C)C(=O)O)C4=O)C3=O [drug G, Gambogic acid] |  | 85 °C | increased all Tm values to the maximum value | 4 °C |  | increased all Tm values to the maximum value
